*1 amine or outer side, *2 acyl side, *3 side chain or, on linkers, in order; H or OH if unused. Where a SMILES comes first, the peptide text is derived from it. [ ]: non-standard residue; d: D form. The star is where a group is joined. Biotin = O=C1N[C@H]2[C@H](CS[C@H]2CCCCC(=O)*)N1; X2 = CC(OP(=O)(O)O)[C@H](N[*:1])C(=O)[*:2]; X3 = O=C([C@H](Cc1cc2ccccc2s1)N[*:1])[*:2]; 1Nal = N[C@@H](Cc1cccc2ccccc12)C(=O)O; 2Nal = N[C@@H](Cc1ccc2ccccc2c1)C(=O)O; Bta = N[C@@H](Cc1csc2ccccc12)C(=O)O; Cha = N[C@@H](CC1CCCCC1)C(=O)O; Pip = O=C(O)[C@@H]1CCCCN1
Experiments:
[1] = molecular target: T1, Peptidyl-prolyl cis-trans isomerase NIMA-interacting 1 (Homo sapiens, UniProt Q13526); test: Inhibition of Pin1 (unknown origin)
T1 sequence (Q13526 whole entry): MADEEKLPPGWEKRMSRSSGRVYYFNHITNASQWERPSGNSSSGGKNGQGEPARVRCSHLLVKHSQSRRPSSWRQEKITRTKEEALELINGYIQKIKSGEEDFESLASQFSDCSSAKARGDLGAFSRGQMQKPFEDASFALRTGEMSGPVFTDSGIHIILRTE

[2] = tested on: MDA-MB-231; test: Anticancer activity against human MDA-MB-231 cells assessed as cell growth inhibition measured after 24 hrs by tryphan blue staining based assay; assay type: functional; settings: MDA-MB-231, 24 h
[3] = molecular target: T1, Peptidyl-prolyl cis-trans isomerase NIMA-interacting 1; test: Inhibition of recombinant human Pin1 assessed as inactivation constant measured upto 180 mins
[4] = tested on: MDA-MB-231; test: Anticancer activity against human MDA-MB-231 cells assessed as cell growth inhibition measured after 48 hrs by cell count reagent SF based assay; assay type: functional; settings: MDA-MB-231, 48 h
[5] = molecular target: T1, Peptidyl-prolyl cis-trans isomerase NIMA-interacting 1; test: Inhibition of Pin1 (unknown origin) using Suc-Ala-Glu-Pro-Phe-pNA as substrate by spectrofluorometry assay
[6] = molecular target: T1, Peptidyl-prolyl cis-trans isomerase NIMA-interacting 1; test: Inhibition of Gst-tagged human Pin1 by Western blot analysis
[7] = molecular target: T1, Peptidyl-prolyl cis-trans isomerase NIMA-interacting 1; test: Inhibition of human Pin1 assessed as inhibition constant
[8] = molecular target: T1, Peptidyl-prolyl cis-trans isomerase NIMA-interacting 1; test: Inhibition of Gst-tagged human Pin1 assessed as inhibition constant by Western blot analysis
[9] = tested on: MEF; test: Anticancer activity against mouse MEF cells assessed as cell growth inhibition measured after 48 hrs by MTT assay; assay type: functional, cell-based
[10] = Inhibition of human FKBP12 assessed as dissociation constant by Western blot analysis
[11] = molecular target: T1, Peptidyl-prolyl cis-trans isomerase NIMA-interacting 1; test: Inhibition of human Pin1
[12] = molecular target: T1, Peptidyl-prolyl cis-trans isomerase NIMA-interacting 1; test: Inhibition of human Pin1 using Suc-AEPF-NH-Np as substrate
[13] = tested on: Saccharomyces cerevisiae
Description: Inhibition of yeast Ess1 using Suc-AEPF-NH-Np as substrate assessed as pseudo first order rate constant

[14] = molecular target: T1, Peptidyl-prolyl cis-trans isomerase NIMA-interacting 1
Description: Inhibition of human Pin1 using Suc-AEPF-NH-Np as substrate assessed as pseudo first order rate constant

C=C(N)NCCC[C@H]1NC(=O)[C@H](CCC(N)=O)NC(=O)[C@H](CCCNC(=N)N)NC(=O)[C@H](Cc2ccc3ccccc3c2)NC(=O)[C@@H]2CCCCN2C(=O)[C@@H]([C@H](C)OP(=O)(O)O)NC(=O)[C@@H](CCCNC(=N)N)NC1=O
IC50 [1]: 220 nM

CC(C)(C)c1ccc(S(=O)(=O)/N=C2\C=C(SCC(=O)O)C(=O)c3ccccc32)cc1
IC50 [2]: 1200 nM
Kinact [3]: 4.66 10^-1/min

CCOC(=O)C([Se]c1ccccc1)C(=O)OCC
IC50 [4]: 21000 nM
IC50 [5]: 780 nM

CC(=O)N[C@@H](CCCCNC(=O)CCCC[C@@H]1SC[C@@H]2NC(=O)N[C@@H]21)C(=O)N[C@@H](C)C(=O)N[C@@H](C)C(=O)N[C@@H](Cc1cc2ccccc2s1)C(=O)N[C@H](C(=O)N1CCC[C@H]1C(=O)N[C@@H](CC1CCCCC1)C(=O)N[C@@H](CCC(N)=O)C(N)=O)C(C)OP(=O)(O)O (some centres undefined) (Ac-K(Biotin)AA[X3][X2]P[Cha]Q-NH2)
IC50 [6]: 50000 nM

COc1ccc(F)cc1C(=O)C1(C)CCc2ccccc21 (racemic)
Ki [7]: 19000 nM

COc1ccc(F)cc1-c1cc(N)c(O)c(C(=O)C2CCc3ccccc32)c1 (centres undefined)
Ki [7]: 4900 nM

Nc1cc(F)cc(-c2ccc(O)c(C(=O)C3CCc4ccccc43)c2)c1O (centres undefined)
Ki [7]: 400 nM

CC(=O)N[C@@H](CCCCNC(=O)CCCC[C@@H]1SC[C@@H]2NC(=O)N[C@@H]21)C(=O)N[C@@H](C)C(=O)N[C@@H](C)C(=O)N[C@@H](Cc1csc2ccccc12)C(=O)N[C@H](C(=O)N1CCCC[C@H]1C(=O)N[C@@H](Cc1cccc2ccccc12)C(=O)N[C@@H](CCC(N)=O)C(N)=O)C(C)OP(=O)(O)O (some centres undefined) (Ac-K(Biotin)AA[Bta][X2][Pip][1Nal]Q-NH2)
Ki [8]: 1.2 nM

CCOC(=O)CN1C(=O)c2ccc3c4c(ccc(c24)C1=O)C(=O)N(CC(=O)OCC)C3=O
IC50 [9]: 1000 nM

C[C@H](N)C(=O)N[C@H](C(=O)N1CCCC[C@H]1C(=O)N[C@@H](Cc1ccc2ccccc2c1)C(=O)N[C@@H](CCC(N)=O)C(N)=O)[C@@H](C)OP(=O)(O)O
Ki [8]: 507 nM

C=CC[C@@H]1/C=C(\C)C[C@H](C)C[C@H](OC)[C@H]2O[C@@](O)(C(=O)C(=O)N3CCCC[C@H]3C(=O)O[C@H](/C(C)=C/[C@@H]3CC[C@@H](O)[C@H](OC)C3)[C@H](C)[C@@H](O)CC1=O)[C@H](C)C[C@@H]2OC [TACROLIMUS ANHYDROUS]
Kd [10]: 0.4 nM

CO[C@H]1C[C@@H]2CC[C@@H](C)[C@@](O)(O2)C(=O)C(=O)N2CCCC[C@H]2C(=O)O[C@H]([C@H](C)C[C@@H]2CC[C@@H](O)[C@H](OC)C2)CC(=O)[C@H](C)/C=C(\C)[C@@H](O)[C@@H](OC)C(=O)[C@H](C)C[C@H](C)/C=C/C=C/C=C/1C [SIROLIMUS]
Kd [10]: 0.2 nM

CC(=O)N[C@@H](CCCCNC(=O)CCCC[C@@H]1SC[C@@H]2NC(=O)N[C@@H]21)C(=O)N[C@@H](C)C(=O)N[C@@H](C)C(=O)N[C@@H](Cc1cc2ccccc2s1)C(=O)N[C@H](C(=O)N1CCCC[C@H]1C(=O)N[C@@H](Cc1ccc2ccccc2c1)C(=O)N[C@@H](CCC(N)=O)C(N)=O)C(C)OP(=O)(O)O (some centres undefined) (Ac-K(Biotin)AA[X3][X2][Pip][2Nal]Q-NH2)
IC50 [6]: 210 nM

Nc1nc(OCc2ccc(CNC(=O)C(F)(F)F)cc2)c2nc[nH]c2n1
IC50 [1]: 72.3 nM

COc1ccccc1C(=O)C1CCc2ccccc21 (centres undefined)
Ki [7]: 6200 nM

CC(=O)N[C@H](CN1CCC[C@H]1C(=O)NCCc1c[nH]c2ccccc12)OP(=O)(O)O
IC50 [11]: 12000 nM

O=C(c1ccccc1O)C1CCc2ccccc21 (centres undefined)
Ki [7]: 5100 nM

C[C@H](N)C(=O)N[C@@H](C(=O)N1CCCC[C@H]1C(=O)N[C@@H](Cc1ccc2ccccc2c1)C(=O)N[C@@H](CCC(N)=O)C(N)=O)[C@H](C)OP(=O)(O)O
Ki [8]: 20 nM

COc1ccc(F)cc1C(=O)[C@]1(C)CCc2ccccc21
Ki [7]: 5600 nM

O=C1C=CC(=O)c2c(O)cccc21 [JUGLONE]
IC50 [12]: 5000 nM
Kobs [13]: 0.53 10^-3/s
Kobs [14]: 1.5 10^-3/s
